Assay results as given in patent publication US4908352A, “Urotensin peptides” (The Salk Institute for Biological Studies, priority 1987, dated 1990).

How the values were obtained:
[1] = Vasodilatory-hypotensive activity, general procedure of Example III (species not separated); format: in vivo; details: for mesenteric blood flow / systemic blood pressure / vasodilatory-hypotensive activity: general procedure of Example III; for vasodilatory-hypotensive activity: mammalian
Source text: (§1) The urotensin peptide from Example II is examined for effects on the secretion of ACTH and β-endorphin in vitro and also examined in vivo. A low potency (4%) to stimulate the secretion of ACTH and β-endorphinby cultured rat pituitary cells is observed. The peptide also stimulates ACTH and B-END-LI secretion in vivo in several rat preparations. UI activity of the peptide is evident in the isolated rat hind limb assay, Lederis, K. et al. "Effects and Assay of Urotensin I on the Perfused Hind Limb of the Rat", Gen. Comp. Endocrinol., 24:10-16, 1974. In vivo hypotensive activity of extracted peptides is measured in anaesthetized rats, Lederis, K. and Medakovic, M. "Pharmacological Observations on the Hypotensive Actin of Extracts of Teleost Fish Urophyses (Urotensin I) in the Rat", Br. J. Pharmacol. 51:315-324, 1974, and in anaesthetized dogs, MacCannell and Lederis, "Dilatation of the Mesenteric Vascular Bed of the Dog Produced by a Peptide, Urotensin I", J. Pharm. Exp. Ther. 203:38-46, 1977.

[2] = ACTH and β-endorphin secretion, general procedure of Example III (in vitro / in vivo not separated)
Source text: as §1

[3] = ACTH and B-END-LI secretion in vivo in several rat preparations
Source text: as §1

[4] = system: cultured rat pituitary cells; test: Secretion of ACTH and β-endorphin by cultured rat pituitary cells; format: cell-based; details: relative potency, reference not named
Source text: as §1

[5] = system: isolated mesenteric artery strips of the rat; test: Isolated mesenteric artery strips of the rat
Source text: The synthetic peptides described above with respect to Example I are generally equipotent with the extracted and purified peptide, as tested in the anaesthetized dog in vivo and when tested in isolated mesenteric artery strips of the rat according to Muramatsu, I., Miura, A., Fujiwara, M. and Lederis, K., Gen. Comp. Endocrinol. 45:446-452, 1981.

mesenteric vascular bed = test: In vivo hypotensive activity / mesenteric vasodilatation in anaesthetized dogs; parameters: species or system dog
Source text: as §1
In the pentobarbital-anaesthetized dog, the threshold dose of Maggy UI for mesenteric vasodilatation, when given close arterially into the cephalic mesenteric A, is between 0.001 and 0.01 μg.

[6] = In vivo hypotensive activity in anaesthetized rats; details: anaesthetized rat
Source text: as §1

teleost fish pituitaries = test: Secretion of ACTH by teleost fish pituitaries
[7] = system: Perfused Hind Limb of the Rat; test: Isolated rat hind limb assay (UI activity)
Source text: as §1

[8] = pentobarbital-anaesthetized dog, doses of 0.1-0.5 μg

**Q.** With “H-SEEPPMSIDLTFHMLRNMIHRAKMEGER-NH2 [Example V, H-Ser-Glu-Glu-Pro-Pro-Met-Ser-Ile-Asp-Leu-Thr-Phe-His-Met-Leu-Arg-Asn-Met- Ile-His-Arg-Ala-Lys-Met-Glu-Gly-Glu-Arg-NH2]” as the substance, how does the mesenteric blood flow [1] read?
**A.** Its mesenteric blood flow is “increasing”.

**Q.** And the systemic blood pressure [1]?
**A.** Its systemic blood pressure is “lowering”.

**Q.** What about the vasodilatory-hypotensive activity [1] of the same substance?
**A.** Its vasodilatory-hypotensive activity is “significant”.

**Q.** Which mesenteric blood flow [1] does the source give for “Ac-SEEPPMSIDLTFHMLRNMIHRAKMEGEREQALINRNLLDEV-NH2 [IV]” here?
**A.** The mesenteric blood flow was “very significant increasing”.

**Q.** What about the systemic blood pressure [1] of the same substance?
**A.** The systemic blood pressure was “lowering”.

**Q.** What about the vasodilatory-hypotensive activity [1] of the same substance?
**A.** The vasodilatory-hypotensive activity was “causes vasodilatory-hypotensive activity”.

**Q.** What about the “secretion of ACTH and β-END-LI” value ([2]; general procedure of Example III) of the same substance?
**A.** Its value is “stimulates”.

**Q.** For “H-SEEPPMSIDLTFHMLRNMIHRAKMEGEREQALINRNLLDEV-NH2 [Maggy UI]”, which “ACTH and B-END-LI secretion in vivo” value [3] is on record?
**A.** The value was “stimulates”.

**Q.** And the “potency to stimulate the secretion of ACTH and β-endorphin” value [4]?
**A.** The value was 4%.

**Q.** And the “activity compared with the extracted and purified peptide” value [5]?
**A.** The value was “not significantly different”.

**Q.** What about the blood pressure ([1]; summary statement) of the same substance?
**A.** Its blood pressure is “substantially lower blood pressure for an extended time period”.

**Q.** And the blood pressure (mesenteric vascular bed; anaesthetized dog)?
**A.** The blood pressure was “modest but sustained depression of the blood pressure”.

**Q.** And the “dilatation of vascular beds other than the mesenteric” value (mesenteric vascular bed; anaesthetized dog)?
**A.** The value was “does not dilate other vascular beds”.

**Q.** What about the “activity compared with the extracted and purified peptide” value (mesenteric vascular bed; anaesthetized dog in vivo) of the same substance?
**A.** The value was “not significantly different”.

**Q.** What about the “accompanying change in blood pressure (decrease)” value (mesenteric vascular bed; [8]) of the same substance?
**A.** The value was “about 10%”.

**Q.** And the mesenteric flow (mesenteric vascular bed; [8])?
**A.** Its mesenteric flow is “significant increase”.

**Q.** And the “ACTH and β-endorphin activities” value ([2]; in vitro and in vivo (summary statement))?
**A.** Its value is “stimulate ACTH and β-endorphin activities in vitro and in vivo”.

**Q.** What about the blood pressure [6] of the same substance?
**A.** The blood pressure was “more marked fall in blood pressure”.

**Q.** And the “potency in stimulating the secretion of ACTH compared with amunine” value (teleost fish pituitaries)?
**A.** Its value is “somewhat more potent than amunine”.

**Q.** And the UI activity [7]?
**A.** The UI activity was “evident”.
